The target of one assay is Haspin kinase (Homo sapiens (Human), UniProt Q8TF76). The assay is described as follows: Haspin kinase assay (ADP-Glo). Conditions: ATP 150 μM. Type of assay: biochemical. The text has this:
The kinase assay relies on ADP-Glo^KM biochemical kinase assay (Promega). This is a luminescent kinase assay that measures ADP formed from a kinase reaction. Then ADP is converted into ATP, which is transformed into a light signal by Ultra-Glo™ Luciferase. The luminescent signal positively correlates with kinase activity. The assay measures the intrinsic ATPase activity (in the absence of peptidic substrate as phosphate acceptor).
The enzyme was purchase from Invitrogen (PV5708) as the kinase domain of GST tagged recombinant human proteins.
Assay conditions were as indicated by the kit manufacturers with the following adaptations: • Assay buffer: 15 mM HEPES pH 7.4, 20 mM NaCl, 1 mM EGTA, 0.02% Tween 20, 10 mM MgCl2, 0.1 mg/ml BGG • Assay volume: 20 μl • Incubation time and temperature: 60 min at 30° C. • Haspin concentration: 20 nM • ATP concentration: 150 μM • Tested compound: Serial 1:3 dilutions • Final DMSO concentration in the assay: 1%
Assays were performed in 384-well plates. The final read out was generated using an EnVision plate reader (Perkin-Elmer). Luminescent relative units are normalized against the control activity included for each compound (i.e., 100% Haspin activity, without compound) and the percentage of inhibition is calculated.
(In general: In ADP-Glo the light output rises with the ADP produced.)

A further assay deals with MDA-MB-231. Put plainly: In vitro cell proliferation assay (CellTiter-Glo), MDA-MB-231. Type of assay: cell-based. To be noted: growth inhibition, semiquantitative, read-out: GI50 MDA-MB-231. As for the experimental part: (§1) The in vitro potency of the compounds was measured by the cell proliferation assay CellTiter-Glo® Luminescent Cell Viability Assay, commercially available from Promega Corp., Madison, Wis. This homogeneous assay method is based on the recombinant expression of Coleoptera luciferase (U.S. Pat. No. 5,583,024; U.S. Pat. No. 5,674,713; U.S. Pat. No. 5,700,670) and determines the number of viable cells in culture based on quantitation of the ATP present, an indicator of metabolically active cells (Crouch et al (1993) J. Immunol. Meth. 160:81-88; U.S. Pat. No. 6,602,677). The CellTiterGlo® Assay was conducted […] it amenable to automated high throughput screening (HTS) (Cree et al (1995) AntiCancer Drugs 6:398-404).
(§2) The homogeneous assay procedure involves adding the single reagent (CellTiter-Glo® Reagent) directly to cells cultured in serum-supplemented medium. Cell washing, removal of medium and multiple pipetting steps are not required. The system detects as few as 15 cells/well in a 96-well format in 10 minutes after adding reagent and mixing.
(§3) The homogeneous “add-mix-measure” format results in cell lysis and generation of a luminescent signal proportional to the amount of ATP present. The amount of ATP is directly proportional to the number of cells present in culture. The CellTiter-Glo® Assay generates a “glow-type” luminescent signal, produced by the luciferase reaction, which has a half-life generally greater than five hours, depending on cell type and medium used. Viable cells are reflected in relative luminescence units (RLU). The substrate, Beetle Luciferin, is oxidatively decarboxylated by recombinant firefly luciferase with concomitant conversion of ATP to AMP and generation of photons. The extended half-life eliminates the need to use reagent injectors and provides flexibility for continuous or batch mode processing of multiple plates. This cell proliferation assay can be used with various multiwell formats, e.g. 96 or 384 well format. Data can be recorded by luminometer or CCD camera imaging device. The luminescence output is presented as relative light units (RLU), measured over time.
On the technique in general: ATP-based viability assays read luminescence as a measure of living cells.

The subject of a further assay is SW620. The assay is described as follows: In vitro cell proliferation assay (CellTiter-Glo), SW620. Format: cell-based, human. To be noted: growth inhibition, semiquantitative, read-out: GI50 SW620. How it is done: as §1, §2, §3
Another assay concerns MV4:11. Put plainly: In vitro cell proliferation assay (CellTiter-Glo), MV4:11. To be noted: growth inhibition, semiquantitative, read-out: GI50 MV4:11. Type of assay: cell-based. How it is done: as §1, §2, §3
For the next assay, the target named is CDK8/Cyclin C (Homo sapiens (Human), UniProt P49336). The assay is described as follows: CDK8/Cyclin C binding assay (LanthaScreen Eu-Kinase Binding Assay). Conditions: for IC50: binding assay. How it is done:
The enzyme has been purchase from Invitrogen (PV4402) as a dimer of full-length His-tagged recombinant human proteins.
(§4) Assays were performed in 384-well plates. The final read out was generated using an EnVision plate reader (Perkin-Elmer).

For the next assay, the target named is CDK19/Cyclin C (Homo sapiens (Human), UniProt Q9BWU1). Put plainly: CDK19/Cyclin C binding assay (LanthaScreen Eu-Kinase Binding Assay). Conditions: read-out: CDK19-CYCC IC50. How it is done:
The binding assay relies on the LanthaScreen™ Eu-Kinase Binding Assay (Invitrogen).
Assay conditions were as indicated by the kit manufacturers with the following adaptations: • Assay buffer: 50 mM HEPES, pH 7.5, 1 mM EGTA, 0.01% Brij-35, 10 mM MgCl2 • Assay volume: 20 μl • Incubation time and temperature: 60 min at 25° C. • Cdk19-Cyclin C concentration: 2 nM • Tracer concentration: 20 nM • (Eu)-labelled anti-GST antibody concentration: 2 nM • Tested compound: Serial 1:3 dilutions • Final DMSO concentration in the assay: 1%
as §4
For orientation: In TR-FRET formats the signal depends on donor and acceptor labels being close together.

In a further assay the test system is Molm13. The assay is described as follows: In vitro cell proliferation assay (CellTiter-Glo), Molm13. Type of assay: cell-based. To be noted: growth inhibition, semiquantitative, read-out: GI50 Molm13. How it is done:
as §1, §2, §3

Where two headings read alike, the source gives them in different places.

Chain of Haspin kinase (Q8TF76 484-798): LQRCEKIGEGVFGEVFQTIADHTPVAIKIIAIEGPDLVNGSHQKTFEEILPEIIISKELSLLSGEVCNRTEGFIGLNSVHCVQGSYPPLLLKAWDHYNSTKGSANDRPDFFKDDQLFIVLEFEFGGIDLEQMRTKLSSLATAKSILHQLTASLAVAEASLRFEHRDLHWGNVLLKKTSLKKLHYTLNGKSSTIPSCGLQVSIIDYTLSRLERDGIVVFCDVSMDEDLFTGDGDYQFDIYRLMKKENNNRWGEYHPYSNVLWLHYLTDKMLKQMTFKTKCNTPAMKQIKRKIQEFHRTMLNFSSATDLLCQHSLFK
Chain of CDK8/Cyclin C (P49336 whole entry): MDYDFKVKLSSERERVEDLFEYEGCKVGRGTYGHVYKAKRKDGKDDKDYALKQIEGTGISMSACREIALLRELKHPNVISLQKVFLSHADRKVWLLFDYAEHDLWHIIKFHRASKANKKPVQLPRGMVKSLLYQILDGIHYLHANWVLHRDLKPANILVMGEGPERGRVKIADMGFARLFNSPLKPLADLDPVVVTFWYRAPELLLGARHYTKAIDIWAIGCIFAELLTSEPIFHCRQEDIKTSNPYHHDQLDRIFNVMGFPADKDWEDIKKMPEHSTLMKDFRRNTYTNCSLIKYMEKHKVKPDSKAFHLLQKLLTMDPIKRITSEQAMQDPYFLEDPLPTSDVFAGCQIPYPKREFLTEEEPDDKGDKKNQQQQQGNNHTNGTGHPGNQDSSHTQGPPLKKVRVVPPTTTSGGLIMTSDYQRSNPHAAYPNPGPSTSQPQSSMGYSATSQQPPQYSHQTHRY
Chain of CDK8/Cyclin C (P24863 whole entry partner): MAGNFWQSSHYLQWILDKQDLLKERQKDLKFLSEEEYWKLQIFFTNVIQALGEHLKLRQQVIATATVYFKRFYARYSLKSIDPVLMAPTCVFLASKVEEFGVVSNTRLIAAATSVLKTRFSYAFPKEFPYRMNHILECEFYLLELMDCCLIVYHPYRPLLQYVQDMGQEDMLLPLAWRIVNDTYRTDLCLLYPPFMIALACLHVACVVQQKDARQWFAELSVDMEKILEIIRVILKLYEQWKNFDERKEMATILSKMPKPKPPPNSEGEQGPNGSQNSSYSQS
Chain of CDK19/Cyclin C (Q9BWU1 whole entry): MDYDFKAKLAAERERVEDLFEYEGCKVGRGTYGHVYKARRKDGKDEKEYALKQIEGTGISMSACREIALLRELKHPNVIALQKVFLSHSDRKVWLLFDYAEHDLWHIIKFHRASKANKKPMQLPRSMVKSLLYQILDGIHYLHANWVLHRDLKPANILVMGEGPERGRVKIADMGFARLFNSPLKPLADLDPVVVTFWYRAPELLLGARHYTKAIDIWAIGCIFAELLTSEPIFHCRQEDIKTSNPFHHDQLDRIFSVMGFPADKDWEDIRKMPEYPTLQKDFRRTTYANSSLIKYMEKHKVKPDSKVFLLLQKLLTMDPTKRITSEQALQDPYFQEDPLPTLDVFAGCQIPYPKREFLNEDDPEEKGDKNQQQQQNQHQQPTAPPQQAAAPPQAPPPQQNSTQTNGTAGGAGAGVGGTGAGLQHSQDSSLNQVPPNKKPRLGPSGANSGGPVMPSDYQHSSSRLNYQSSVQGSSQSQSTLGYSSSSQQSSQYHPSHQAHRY
Chain of CDK19/Cyclin C (P24863 whole entry partner): as the sequence (P24863 whole entry partner) above

In the case of `CCn1c(C(N)=O)cc2c1-c1ccncc1O[C@H]2C1CCCCC1` (single isomer, unassigned) [Example 89], the results for the 50% inhibitory concentration (IC50) at Haspin kinase, on CDK8/Cyclin C and at CDK19/Cyclin C were 95.2 nM, 0.407 nM and 1.41 nM, respectively. Moreover, the concentration for 50% growth inhibition (GI50) (usually the concentration that inhibits growth by half) was 10000 to 100000 nM in the assay on MDA-MB-231, 10000 to 100000 nM in the assay on SW620, less than 1000 nM with MV4:11 and less than 1000 nM in the assay with Molm13.
In the case of `CC1(C)Oc2cnccc2-c2[nH]c(C(N)=O)cc21` [Example 1], the IC50 (in general, the concentration at which inhibition is half-maximal) was determined as 38.1 nM against Haspin kinase, 2.59 nM at CDK8/Cyclin C and 11.9 nM at CDK19/Cyclin C. The concentration for 50% growth inhibition (GI50) with MDA-MB-231 (Homo sapiens, MDA-MB-231) was 10000 to 100000 nM; in the assay with MV4:11 (Homo sapiens, MV4-11), 1000 to 10000 nM.
On to `CNC(=O)c1cc2c([nH]1)-c1ccncc1OC2(C)C` [Example 3], for which the results for the IC50 against Haspin kinase, at CDK8/Cyclin C and on CDK19/Cyclin C were 180 nM, 92.2 nM and 322 nM, respectively.
Take `Cl.NC(=O)c1cc2c([nH]1)-c1ccncc1OC21CCNCC1` [Example 12]: the IC50 at Haspin kinase came to 53.3 nM; on CDK8/Cyclin C, 412 nM; on CDK19/Cyclin C it was 550 nM.
For `NC(=O)c1cc2c([nH]1)-c1ccncc1OC21CCCCC1` [Example 13] the same measures were 53.6 nM, 4.18 nM and 8.22 nM.
For `O=C(O)c1cc2c([nH]1)-c1ccncc1OC21CCCCC1` [Example 14] the same measures were 1000 nM, 23.9 nM and 3.01 nM.
For `NC(=O)c1cc2c([nH]1)-c1ccncc1OC21CCOCC1` [Example 20] the same measures were 206 nM, 54.7 nM and 211 nM.
As for `Cn1c(C(=O)O)cc2c1-c1ccncc1OC2(C)C` [Example 23], the half-maximal inhibitory concentration (IC50) on Haspin kinase is 648 nM; on CDK8/Cyclin C, 61.1 nM; on CDK19/Cyclin C it was 233 nM.
For `CC1(C)Oc2cnccc2-c2[nH]c(C(N)=O)c(Cl)c21` [Example 28] the same measures were 26.6 nM, 9.32 nM and 16.6 nM.
For `CC1(C)Oc2cnccc2-c2[nH]c(C(=O)O)c(Br)c21` [Example 29] the same measures were 89.3 nM, 52.5 nM and 205 nM.
Regarding `CC1(C)Oc2cnccc2-c2[nH]c(C(=O)O)c(-c3ccc(S(N)(=O)=O)cc3)c21` [Example 30], the half-maximal inhibitory concentration (IC50) on Haspin kinase came out at 2740 nM; at CDK8/Cyclin C, 8.94 nM; on CDK19/Cyclin C, 20.7 nM. Further, at CDK8/Cyclin C, the CDK8 selectivity result is “high CDK8 selectivity”.
Turning to `CC1(C)Oc2cnccc2-c2[nH]c(C(N)=O)c(-c3ccccc3)c21` [Example 31], the IC50 worked out at 73.2 nM at Haspin kinase, 29.7 nM on CDK8/Cyclin C and 107 nM at CDK19/Cyclin C.
For `CC1(C)Oc2cnccc2-c2[nH]c(C(N)=O)c(-c3ccc(S(N)(=O)=O)cc3)c21` [Example 32] the same measures were 235 nM, 26.2 nM and 81.3 nM.
Consider `C=Cc1c(C(N)=O)[nH]c2c1C(C)(C)Oc1cnccc1-2` [Example 33], for which the IC50 on Haspin kinase is 90.6 nM; on CDK8/Cyclin C, 12.3 nM; on CDK19/Cyclin C it was 29.5 nM.
Turning to `CC1(C)Oc2cncc(Cl)c2-c2[nH]c(C(N)=O)cc21` [Example 34], the concentration for half-maximal inhibition (IC50) at Haspin kinase turned out to be 31.8 nM; at CDK8/Cyclin C it was 2.1 nM; on CDK19/Cyclin C, 1.41 nM. Besides, in the assay on MV4:11 (Homo sapiens, MV4-11), the 50% growth inhibitory concentration (GI50) was less than 1000 nM.
For the molecule `CC1(C)Oc2cncc(Cl)c2-c2[nH]c(C(=O)O)cc21` [Example 35], the half-maximal inhibitory concentration (IC50) against Haspin kinase was 151 nM; on CDK8/Cyclin C, 13.3 nM; at CDK19/Cyclin C, 31.4 nM.
For `Cn1c(C(N)=O)cc2c1-c1c(Cl)cncc1OC2(C)C` [Example 41], in that order: 1310 nM, 55.5 nM and 158 nM.
For `COc1ccc(-c2c(C(N)=O)[nH]c3c2C(C)(C)Oc2cnccc2-3)cc1` [Example 51] the same measures were 321 nM, 31.9 nM and 171 nM.
For `CC1(C)Oc2cnccc2-c2c1cc(C(N)=O)n2CC(F)(F)F` [Example 53] the same measures were 186 nM, 21.6 nM and 19.4 nM.
`CC(C)C1(C)Oc2cnccc2-c2[nH]c(C(N)=O)cc21` (stereo not shown) [Example 54]: the half-inhibitory concentration (IC50) against Haspin kinase was 52.9 nM; at CDK8/Cyclin C it was 31.1 nM; at CDK19/Cyclin C it was 97.1 nM.
For `CC1(C)Oc2cnccc2-c2[nH]c(C(N)=O)c(C3=CCOCC3)c21` [Example 55] the same measures were 146 nM, 39.3 nM and 70.5 nM.
For `CC1(C)Oc2cnccc2-c2[nH]c(C(=O)O)c(C3=CCOCC3)c21` [Example 56], in that order: 683 nM, 78.5 nM and 86.6 nM.
For `NC(=O)c1cc2c([nH]1)-c1ccncc1OC2C1CCCCC1` (stereo not shown) [Example 57], in the assay with SW620 (Homo sapiens, SW-620), the 50% growth inhibitory concentration (GI50) is less than 1000 nM. Also, the results for the half-maximal inhibitory concentration (IC50) at CDK8/Cyclin C and on CDK19/Cyclin C were 1.41 nM and 47.3 nM, respectively.
For `CC1Oc2cnccc2-c2[nH]c(C(N)=O)cc21` (stereo not shown) [Example 58], the IC50 on Haspin kinase worked out at 247 nM; on CDK8/Cyclin C it was 14.4 nM; on CDK19/Cyclin C, 25.5 nM.
For `COc1ccccc1-c1c(C(N)=O)[nH]c2c1C(C)(C)Oc1cnccc1-2` [Example 63] the same measures were 3960 nM, 55.4 nM and 229 nM.
For `CC1(C)Oc2cnccc2-c2[nH]c(C(N)=O)c(-c3ccc4[nH]ncc4c3)c21` [Example 65], in that order: 933 nM, 10000 nM and 10000 nM.
On to `CCn1c(C(N)=O)cc2c1-c1ccncc1OC21CCC1` [Example 66], for which the values for the IC50 at CDK8/Cyclin C and on CDK19/Cyclin C were 0.191 nM and 1.41 nM, respectively.
Regarding `Cn1c(C(N)=O)cc2c1-c1ccncc1OC21CCC1` [Example 67], the IC50 at Haspin kinase came out at 27.6 nM; at CDK8/Cyclin C it was 0.466 nM; at CDK19/Cyclin C, 1.41 nM.
For `CCn1c(C(N)=O)c(-c2ccccc2C(F)(F)F)c2c1-c1ccncc1OC2(C)C` [Example 75] the same measures were 233 nM, 14.4 nM and 16.7 nM.
With `CCn1c(C(N)=O)c(-c2cccc(OC)c2)c2c1-c1ccncc1OC2(C)C` [Example 88], the IC50 at Haspin kinase is 106 nM; at CDK8/Cyclin C it was 13.9 nM. In addition, the 50% growth inhibitory concentration (GI50) in the assay with MDA-MB-231 (Homo sapiens, MDA-MB-231) was 10000 to 100000 nM; in the assay with SW620 (Homo sapiens, SW-620) it was 10000 to 100000 nM; in the assay with MV4:11 (Homo sapiens, MV4-11), less than 1000 nM; with Molm13 (Homo sapiens, MOLM-13), 1000 to 10000 nM.

For the origin of these results see patent US10208056B2, “Condensed tricyclic compounds as protein kinase inhibitors” (FUNDACIÓN DEL SECTOR PÚBLICO ESTATAL CENTRO NACIONAL DE …, priority 2015, dated 2019).
